Test results from paper PMC7690861, “Topical Administration of Cannabidiol: Influence of Vehicle-Related Aspects on Skin Permeation Process” (Pharmaceuticals, 2020).
≈ marks a conversion by molar mass, not a printed value. Like-named read-outs stand apart in the source and are kept apart here. Marks after values point to notes of the source that are not given here.

Assays:
[1] = Preliminary chemical stability of CBD in tested formulations (total impurities); type: physicochemical; details: over the preparation process and the permeation experiments; preliminary data
Description: Evidence in the literature highlighted that CBD was quite unstable in a solution for a long period. Even if an in-depth investigation of the chemical stability of CBD loaded in the tested formulation has not been performed yet, preliminary data highlighted that CBD was stable over both the preparation process and the permeation experiments (total impurities < 2% of CBD assay). […] Further studies are needed to determine the long-term stability of the tested formulations.
HPLC analysis was run using an HP 1100 ChemStation system (Agilent Technologies Inc, USA), acetonitrile/phosphate buffer pH 3.0 (75/25, v/v) was used as mobile phase at a flow rate of 1.5 mL/min, injection volume was set at 20 μL. The UV detector was set at a wavelength of 215 nm. A reverse-phase C8 column (InertClone™, 5 μm, 150 × 4.6 mm; Phenomenex Inc, Torrance, USA) was used. The retention time of the CBD was 4.0 min. Two calibration curves were made in the overall range of 0.02–100 μg/mL.

[2] = set-up: method as in Burke [29]; details: experimental; ref Burke [29]; cited from earlier work
[3] = Fedors method; ref Minghetti et al. [26]; cited from earlier work

Description for physchem: The equilibrium solubility of CBD in each of the above-mentioned solvent systems was determined by the shake-flask method. An excess quantity of the cannabinoid compound was added to 1 mL of each test solution in a glass vial. […] In the case of aqueous solutions, the supernatant fluid was then filtered (0.45 μm PP syringe filter) and properly diluted in methanol before being analyzed by HPLC. In the case of oily solutions, the supernatant fluid was filtered (0.45 μm PVDF syringe filter); then, 60 μL of the filtered solution was withdrawn and added to 5 mL of methanol; the mixture was vortexed for 1 min and allowed to stand for 1 min three times, then it was centrifuged (4000 rpm, 2 min); the supernatant fluid was sampled and properly diluted in methanol before being analyzed by HPLC. Each solubility value was calculated as the mean of three independent shake-flask experiments, considering any dilution factors and an extraction efficiency factor in case of oily solutions.

C=C(C)[C@@H]1CCC(C)=C[C@H]1c1c(O)cc(CCCCC)cc1O [CBD, Cannabidiol]
solubility at 24 h (physchem): 2240 ± 80 µg/mL (≈ 7.12 mM)
Total impurities [1]: < 2 % of CBD assay

CC(O)CO (stereo not shown) [Propylene glycol]
δ (solubility parameter) [2]: 14.80 ^d cal/cm^3

O-acylglucosylceramide
δ (solubility parameter) [3]: 10.03 ^a cal/cm^3
